This test relates to α-ketoglutaric semialdehyde dehydrogenase KDHba. Nature of the test: Enzymatic assay of KDHba (NADH absorbance at 340 nm). Type of test: biochemical, Burkholderia ambifaria.
Setting [1] is: substrate of KDHba, pH 8.0, 0.5 mM NAD+.

As to `CCCCC=O` [Valeraldehyde, valeraldehyde], under setting [1], the Km turned out to be 31 µM and the kcat is 8.69 ± 0.26 s⁻¹. Further, the “specificity constant (kcat/KM) of KDHba, fold higher than toward isobutyraldehyde” value (versus isobutyraldehyde) is listed as 1260 fold. The “specificity constant (kcat/KM) of KDHba, fold higher than toward isovaleraldehyde” value (versus isovaleraldehyde) amounted to 308 fold.

In general, Km refers to the substrate concentration at which the rate is half of its maximum. Usually kcat stands for the number of substrate molecules converted per active site and unit of time at saturation.

The values are drawn from patent US20150132813A1, “BIOSYNTHETIC PATHWAYS, RECOMBINANT CELLS, AND METHODS” (REGENTS OF THE UNIVERSITY OF MINNESOTA, priority 2012, published 2015).
